Measurements as given in patent US20150148551A1, “GENISTEIN FOR REDUCING LEVELS OF STORAGE COMPOUNDS IN THE TREATMENT AND/OR PREVENTION OF LYSOSOMAL STORAGE DISEASES (LSDS)” (3G THERAPEUTICS, INC., priority 2012, published 2015).

How the values were obtained:
ST3GAL2 = experiment: DNA microarray, ST3GAL2 expression in fibroblasts exposed to genistein; type: cell-based, human; conditions: 100 μM, 48 h vs 0.05% DMSO
Protocol: (§1) The experiments were conducted to characterise the transcriptomic profile of human fibroblast cells exposed to genistein, and in particular to determine the expression of genes encoding lysosomal enzymes involved in metabolism (i.e. synthesis and degradation) of organic substances. The absence or deficiency of these enzymes' activity is responsible for occurrence of various lysosomal storage diseases (LSD) (including MPS). The tested hypothesis assumed that genistein influences the expression of many genes, among which there are genes coding for enzymes required in metabolism of compounds, which are pathologically stored in LSD. The results provide important information regarding genistein action on the molecular level within the range of gene expression modulation by this substance. The experiment was conducted in biological quintuplicates. Human dermal fibroblasts (HDFa) were exposed in vitro for 1, 24 or 48 hours to: 30, 60 or 100 μM of genistein; 0.05% DMSO (K1); or were untreated (control cells) (K2), and total RNA was isolated and analysed.
(§2) Fibroblast cells were grown in Dulbecco (DMEM) medium supplemented with 10% fetal bovine serum (FBS) with the addition of 1% antibiotics and anti-fungal agents at 37° C. in humidified atmosphere of 5% CO2, until the required confluency was obtained.
(§3) To determine the effect of tested compound on the transcriptom of the fibroblast cells, the growth medium was replaced with fresh medium, either non-supplemented (0.05% DMSO), or containing genistein (30, 60 or 100 μM, in 0.05% DMSO). The exposure was done for 1, 24 or 48 hours.
(§4) Total RNA was isolated from fibroblasts using High Pure RNA Isolation Kit according to the protocol and then it was quantitatively evaluated using Quant-It™ RiboGreen® Assay Kit.
(§5) Biotinylated cRNA was prepared using Ambion Total PrepAmp Kit for Illumina arrays.
(§6) Standard hybridization and quantitative image analysis procedures—Illumina hybridization protocol and Illumina scanning protocol, were used.
(§7) Processing of the results was done during data definition, including: background correction (using background subtraction method), normalization (using quantile normalization algorithm with Illumina GenomeStudio software package: gene expression module version 1.9.0) and summarization (using method, which sums the values of signal intensities from a set of probes).

[1] = system: fibroblasts from patients with MPS type I, IIIA and IIIB; conditions: cited from earlier work
NEU1 = experiment: DNA microarray, NEU1 expression in fibroblasts exposed to genistein; type: cell-based, human; conditions: for NEU1 fold change Average: 48 h vs DMSO
Protocol: as §1, §2, §3, §4, §5, §6, §7

ST3GAL6 = experiment: DNA microarray, ST3GAL6 expression in fibroblasts exposed to genistein; type: cell-based, human
Protocol: as §1, §2, §3, §4, §5, §6, §7

MAN2B1 = experiment: DNA microarray, MAN2B1 expression in fibroblasts exposed to genistein; type: cell-based, human; conditions: for MAN2B1 fold change Average: 48 h vs DMSO
Protocol: as §1, §2, §3, §4, §5, §6, §7

HEXA = experiment: DNA microarray, HEXA expression in fibroblasts exposed to genistein; type: cell-based, human; conditions: for HEXA fold change Average: 48 h vs DMSO
Protocol: as §1, §2, §3, §4, §5, §6, §7

CTSF = experiment: DNA microarray, CTSF expression in fibroblasts exposed to genistein; type: cell-based, human; conditions: for CTSF fold change Average: 48 h vs DMSO
Protocol: as §1, §2, §3, §4, §5, §6, §7

XYLT1 = experiment: DNA microarray, XYLT1 expression in fibroblasts exposed to genistein; type: cell-based, human
Protocol: as §1, §2, §3, §4, §5, §6, §7

AGA = experiment: DNA microarray, AGA expression in fibroblasts exposed to genistein; type: cell-based, human; conditions: for AGA fold change Average: 48 h vs DMSO
Protocol: as §1, §2, §3, §4, §5, §6, §7

**Q.** For `O=c1c(-c2ccc(O)cc2)coc2cc(O)cc(O)c12` [genistein, 4′,5,7-trihydroxy-3-phenylchromen-4-one], which “ST3GAL2 fold change Average 48h100/48hK1” value (ST3GAL2) is on record?
**A.** The value was 0.7215 fold change.

**Q.** What about the GAG synthesis [1] of the same compound?
**A.** The GAG synthesis was “reduces levels of GAG synthesis”.

**Q.** And the “storage depositions in cells” value [1]?
**A.** Its value is “causes disappearance of the storage depositions in cells”.

**Q.** And the “NEU1 fold change Average 1h30/1hK1” value (NEU1; 30 μM, 1 h vs 0.05% DMSO)?
**A.** The value was 1.2206 fold change.

**Q.** What about the “NEU1 fold change Average” value (NEU1; 30 μM) of the same compound?
**A.** The value was 1.6536 fold change.

**Q.** And the “NEU1 fold change Average 1h60/1hK1” value (NEU1; 60 μM, 1 h vs 0.05% DMSO)?
**A.** Its value is 1.323 fold change.

**Q.** What about the “NEU1 fold change Average” value (NEU1; 60 μM) of the same compound?
**A.** The value was 2.259 fold change.

**Q.** What about the “NEU1 fold change Average 1h100/1hK1” value (NEU1; 100 μM, 1 h vs 0.05% DMSO) of the same compound?
**A.** The value was 1.353 fold change.

**Q.** And the “NEU1 fold change Average” value (NEU1; 100 μM)?
**A.** The value was 2.492 fold change.

**Q.** And the “ST3GAL6 fold change Average 1h30/1hK1” value (ST3GAL6; 30 μM, 1 h vs 0.05% DMSO)?
**A.** The value was 1.234 fold change.

**Q.** And the “ST3GAL6 fold change Average 24h30/24hK1” value (ST3GAL6; 30 μM, 24 h vs 0.05% DMSO)?
**A.** Its value is 0.9878 fold change.

**Q.** And the “ST3GAL6 fold change Average 48h30/48hK1” value (ST3GAL6; 30 μM, 48 h vs 0.05% DMSO)?
**A.** The value was 1.015 fold change.

**Q.** And the “ST3GAL6 fold change Average 1h60/1hK1” value (ST3GAL6; 60 μM, 1 h vs 0.05% DMSO)?
**A.** Its value is 1.072 fold change.

**Q.** What about the “ST3GAL6 fold change Average 1h100/1hK1” value (ST3GAL6; 100 μM, 1 h vs 0.05% DMSO) of the same compound?
**A.** The value was 1.064 fold change.

**Q.** What about the “ST3GAL6 fold change Average 24h100/24hK1” value (ST3GAL6; 100 μM, 24 h vs 0.05% DMSO) of the same compound?
**A.** Its value is 0.7371 fold change.

**Q.** And the “ST3GAL6 fold change Average 48h100/48hK1” value (ST3GAL6; 100 μM, 48 h vs 0.05% DMSO)?
**A.** Its value is 0.7409 fold change.

**Q.** And the “MAN2B1 fold change Average 1h30/1hK1” value (MAN2B1; 30 μM, 1 h vs 0.05% DMSO)?
**A.** The value was 1.0342 fold change.

**Q.** What about the “MAN2B1 fold change Average” value (MAN2B1; 30 μM) of the same compound?
**A.** Its value is 1.036 fold change.

**Q.** What about the “MAN2B1 fold change Average 1h60/1hK1” value (MAN2B1; 60 μM, 1 h vs 0.05% DMSO) of the same compound?
**A.** Its value is 0.8507 fold change.

**Q.** What about the “MAN2B1 fold change Average” value (MAN2B1; 60 μM) of the same compound?
**A.** The value was 1.586 fold change.

**Q.** And the “MAN2B1 fold change Average 1h100/1hK1” value (MAN2B1; 100 μM, 1 h vs 0.05% DMSO)?
**A.** The value was 0.9864 fold change.

**Q.** What about the “MAN2B1 fold change Average” value (MAN2B1; 100 μM) of the same compound?
**A.** The value was 1.924 fold change.

**Q.** And the “HEXA fold change Average 1h30/1hK1” value (HEXA; 30 μM, 1 h vs 0.05% DMSO)?
**A.** The value was 1.2226 fold change.

**Q.** What about the “HEXA fold change Average” value (HEXA; 30 μM) of the same compound?
**A.** Its value is 1.0817 fold change.

**Q.** What about the “HEXA fold change Average 1h60/1hK1” value (HEXA; 60 μM, 1 h vs 0.05% DMSO) of the same compound?
**A.** Its value is 1.174 fold change.

**Q.** And the “HEXA fold change Average” value (HEXA; 60 μM)?
**A.** The value was 1.474 fold change.

**Q.** And the “HEXA fold change Average 1h100/1hK1” value (HEXA; 100 μM, 1 h vs 0.05% DMSO)?
**A.** Its value is 1.042 fold change.

**Q.** What about the “HEXA fold change Average” value (HEXA; 100 μM) of the same compound?
**A.** The value was 1.621 fold change.

**Q.** And the “CTSF fold change Average 1h30/1hK1” value (CTSF; 30 μM, 1 h vs 0.05% DMSO)?
**A.** The value was 1.0096 fold change.

**Q.** And the “CTSF fold change Average” value (CTSF; 30 μM)?
**A.** Its value is 1.417 fold change.

**Q.** And the “CTSF fold change Average 1h60/1hK1” value (CTSF; 60 μM, 1 h vs 0.05% DMSO)?
**A.** Its value is 0.9505 fold change.

**Q.** What about the “CTSF fold change Average” value (CTSF; 60 μM) of the same compound?
**A.** The value was 1.8 fold change.

**Q.** And the “CTSF fold change Average 1h100/1hK1” value (CTSF; 100 μM, 1 h vs 0.05% DMSO)?
**A.** Its value is 0.9458 fold change.

**Q.** What about the “CTSF fold change Average” value (CTSF; 100 μM) of the same compound?
**A.** Its value is 2.066 fold change.

**Q.** And the “XYLT1 fold change Average 1h30/1hK1” value (XYLT1; 30 μM, 1 h vs 0.05% DMSO)?
**A.** The value was 1.058 fold change.

**Q.** And the “XYLT1 fold change Average 24h30/24hK1” value (XYLT1; 30 μM, 24 h vs 0.05% DMSO)?
**A.** Its value is 0.8611 fold change.

**Q.** What about the “XYLT1 fold change Average 48h30/48hK1” value (XYLT1; 30 μM, 48 h vs 0.05% DMSO) of the same compound?
**A.** Its value is 0.9745 fold change.

**Q.** What about the “XYLT1 fold change Average 24h60/24hK1” value (XYLT1; 60 μM, 24 h vs 0.05% DMSO) of the same compound?
**A.** The value was 0.6217 fold change.

**Q.** What about the “XYLT1 fold change Average 1h100/1hK1” value (XYLT1; 100 μM, 1 h vs 0.05% DMSO) of the same compound?
**A.** The value was 1 fold change.

**Q.** And the “XYLT1 fold change Average 24h100/24hK1” value (XYLT1; 100 μM, 24 h vs 0.05% DMSO)?
**A.** Its value is 0.6324 fold change.

**Q.** What about the “XYLT1 fold change Average 48h100/48hK1” value (XYLT1; 100 μM, 48 h vs 0.05% DMSO) of the same compound?
**A.** Its value is 0.921 fold change.

**Q.** And the “AGA fold change Average 1h30/1hK1” value (AGA; 30 μM, 1 h vs 0.05% DMSO)?
**A.** The value was 1.0395 fold change.

**Q.** And the “AGA fold change Average” value (AGA; 30 μM)?
**A.** Its value is 1.3732 fold change.

**Q.** And the “AGA fold change Average 1h60/1hK1” value (AGA; 60 μM, 1 h vs 0.05% DMSO)?
**A.** Its value is 0.9753 fold change.

**Q.** And the “AGA fold change Average” value (AGA; 60 μM)?
**A.** The value was 1.864 fold change.

**Q.** What about the “AGA fold change Average 1h100/1hK1” value (AGA; 100 μM, 1 h vs 0.05% DMSO) of the same compound?
**A.** The value was 0.9749 fold change.

**Q.** What about the “AGA fold change Average” value (AGA; 100 μM) of the same compound?
**A.** The value was 2.33 fold change.
